{
  "source": "patent US20070178494A1",
  "about": "“Methods for prediction and prognosis of cancer, and monitoring cancer therapy” (priority 2005, published 2007)",
  "key": {"[1]": {"system": "VEGF", "assay": "ELISA of plasma VEGF pre- and post-treatment, Phase III TARGETs study", "format": "in vivo, human", "details": "patients with advanced renal cell cancer, after 3 weeks of treatment, p=3.2E-5"}, "[2]": {"system": "advanced renal cell cancer", "assay": "Progression-free survival by baseline VEGF level, Phase III TARGETs study", "format": "in vivo, human", "details": "patients receiving sorafenib", "experimental": "All analyses were carried out under IRB-approved protocols.\nMeasures of patient outcome found useful were time to death (TTD) and progression-free survival (PFS) using a Cox regression analysis. Baseline levels of VEGF were determined and changes in the baseline level were determined at week 18 of treatment. The effects observed were adjusted for age, gender, ECOG status or Motzer score. These adjustments were minimal."}},
  "data": [
    {"molecule": "CNC(=O)c1cc(Oc2ccc(NC(=O)Nc3ccc(Cl)c(C(F)(F)F)c3)cc2)ccn1", "note": "[sorafenib]", "values": [
      {"measurement": "change of VEGF levels from baseline", "setting": "[1]", "value": "increased significantly"},
      {"measurement": "difference in PFS between patients with high (>250 pg/mL) or low (<250 pg/mL) baseline VEGF levels", "setting": "[2]", "value": "no significant difference"}
    ]}
  ]
}
